Measurements taken from BindingDB's records for doi:10.1021/acs.jmedchem.6b01194 (University of Illinois At Chicago, 2016).
pEC50: −log10 of the molar value.

Target: 5-hydroxytryptamine receptor 2B (Homo sapiens, UniProt P41595)
Assay: Agonist activity at human 5-HT2B receptor expressed in human Flp-In-293 cells assessed as induction of calcium flux incubated for 1 hr by Fluo-4 direct dye based FLIPR assay

5-hydroxytryptamine receptor 2B, sequence (P41595 whole entry): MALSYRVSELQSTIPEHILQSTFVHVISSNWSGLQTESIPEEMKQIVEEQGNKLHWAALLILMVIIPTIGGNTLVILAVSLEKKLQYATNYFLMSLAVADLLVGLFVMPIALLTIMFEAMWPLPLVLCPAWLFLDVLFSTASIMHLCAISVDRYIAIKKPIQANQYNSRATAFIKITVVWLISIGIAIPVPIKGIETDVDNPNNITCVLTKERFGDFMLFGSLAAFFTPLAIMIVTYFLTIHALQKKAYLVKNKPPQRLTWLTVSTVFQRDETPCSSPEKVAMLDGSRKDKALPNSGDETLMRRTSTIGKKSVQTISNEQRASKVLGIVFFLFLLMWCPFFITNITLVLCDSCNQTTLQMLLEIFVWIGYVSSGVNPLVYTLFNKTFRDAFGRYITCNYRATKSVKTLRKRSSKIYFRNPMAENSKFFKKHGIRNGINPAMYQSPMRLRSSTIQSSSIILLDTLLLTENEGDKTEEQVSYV

NC[C@H]1C[C@@H]1c1c(OCC2CC2)ccc2occc12
pEC50: 6.47
